Measured values reported in patent publication US4618669A, “S-(carbamoyl-phenylselenyl) derivatives of glutathione and of aminomercaptocarboxylic acids” (A. Nattermann & Cie GmbH, priority 1984, dated 1986).

assay: Glutathione-peroxidase-like activity, reaction rates by the method of A. Wendel; type: biochemical; settings: relative to S-(2-phenylcarbamoyl-phenylselenyl) glutathione, taken as 100%; tert-butylhydroperoxide; in vitro
Protocol: The measuring of the glutathione peroxidase-like activity is carried out by the method of A. Wendel (A. Wendel, Methods in Enzymology, vol. 77, 325-333 (1981)). In this experiment, the reaction of the co-substrate nicotine […]-dinucleotide-phosphate is measured. The reducing agent in this case is not glutathione, but the […] containing aminoacid which has been used for the synthesis of the respective compounds. […] In in vitro-experiments, the catalysis of the peroxidase destruction has been examined. It was found, that the compounds of the present invention can replace the glutathioneperoxidase. [drawing 5] The reaction rates were measured by the method of A. Wendel (A. Wendel, Methods in Enzymology, vol. 77, pages 325-333 (1981)).

| SMILES | catalytic activity (%) |
| --- | --- |
| N[C@@H](CS[Se]c1ccccc1C(=O)NCc1ccccc1)C(=O)O [S-(2-Benzylcarbamoyl-phenylselenyl)-L-cysteine] | 56 |
| NC(CCC(=O)NC(CS[Se]c1cc(F)ccc1C(=O)Nc1ccccc1)C(=O)NCC(=O)O)C(=O)O [S-(2-Phenylcarbamoyl-5-fluoro-phenylselenyl)-L-glutathione] | 92 |
| N[C@@H](CS[Se]c1ccccc1C(=O)Nc1ccccc1)C(=O)O [S-(2-Phenylcarbamoyl-phenylselenyl)-L-cysteine] | 210 |
| N[C@@H](CCC(=O)N[C@@H](CS[Se]c1ccccc1C(=O)Nc1ccccc1)C(=O)NCC(=O)O)C(=O)O [S-(2-Phenylcarbamoyl-phenylselenyl)-L-glutathione] | 100 |
| CC(=O)N[C@@H](CS[Se]c1ccccc1C(=O)Nc1ccccc1)C(=O)O [S-(2-Phenylcarbamoyl-phenylselenyl)-N-acetyl-L-cysteine] | 40 |
| NC(CCC(=O)NC(CS[Se]c1cc(Cl)ccc1C(=O)Nc1ccccc1)C(=O)NCC(=O)O)C(=O)O [S-(2-phenylcarbamoyl-5-chlor-phenylselenyl)-L-glutathione] | 99 |
| COc1ccc(C(=O)Nc2ccccc2)c([Se]SCC(NC(=O)CCC(N)C(=O)O)C(=O)NCC(=O)O)c1 [S-(2-phenylcarbamoyl-5-methoxy-phenylselenyl)-L-glutathione] | 63 |
| COc1cccc(C(=O)Nc2ccccc2)c1[Se]SC[C@H](N)C(=O)O [S-(2-phenylcarbamoyl-6-methoxy-phenylselenyl)-L-cysteine] | 440 |
| COc1cccc(C(=O)Nc2ccccc2)c1[Se]SCC(NC(=O)CCC(N)C(=O)O)C(=O)NCC(=O)O [S-(2-phenylcarbamoyl-6-methoxy-phenylselenyl)-L-glutathione] | 225 |
| CC(C)(S[Se]c1ccccc1C(=O)Nc1ccccc1)[C@@H](N)C(=O)O [S-(2-phenylcarbamoyl-phenylselenyl)-D-penicillamine] | 25 |
| COc1ccccc1NC(=O)c1ccccc1[Se]SCC(NC(=O)CCC(N)C(=O)O)C(=O)NCC(=O)O [S--[2-(2-methoxyphenylcarbamoyl)-phenylselenyl]-L--glutathione] | 37 |
| NC(CCC(=O)NC(CS[Se]c1ccccc1C(=O)Nc1ccccc1Cl)C(=O)NCC(=O)O)C(=O)O [S-[2-(2-chlorphenylcarbamoyl)-phenylselenyl]-L-glutathione] | 39 |
| N[C@@H](CCC(=O)N[C@@H](CS[Se]c1ccccc1C(=O)Nc1ccc(Cl)c(Cl)c1)C(=O)NCC(=O)O)C(=O)O [S-[2-(3,4-Dichlorophenylcarbamoyl)-phenylselenyl]-L-glutathione] | 21 |
| NC(CCC(=O)NC(CS[Se]c1ccccc1C(=O)Nc1cccc(F)c1)C(=O)NCC(=O)O)C(=O)O [S-[2-(3-fluorophenylcarbamoyl)-phenylselenyl]-L-glutathione] | 113 |
| NC(CCC(=O)NC(CS[Se]c1ccccc1C(=O)Nc1ccc(Cl)cc1)C(=O)NCC(=O)O)C(=O)O [S-[2-(4-Chlorophenylcarbamoyl)-phenylselenyl]-L-glutathione] | 116 |
| COc1ccc(NC(=O)c2ccccc2[Se]SCC(NC(=O)CCC(N)C(=O)O)C(=O)NCC(=O)O)cc1 [S-[2-(4-Methoxyphenylcarbamoyl)-phenylselenyl]-L-glutathione] | 124 |
| CC(=O)N[C@@H](CS[Se]c1ccccc1C(=O)Nc1ccc(F)cc1)C(=O)O [S-[2-(4-fluorophenylcarbamoyl)-phenylselenyl]-N-acetyl-L-cysteine] | 61 |
| NC(CCC(=O)NC(CS[Se]c1ccccc1C(=O)Nc1ccc([N+](=O)[O-])cc1)C(=O)NCC(=O)O)C(=O)O [S-[2-(4-nitrophenylcarbamoyl)-phenylselenyl]-L-glutathione] | 121 |
| NC(CCC(=O)NC(CS[Se]c1ccccc1C(=O)Nc1ccc(C(F)(F)F)cc1)C(=O)NCC(=O)O)C(=O)O [S-[2-(4-trifluormethylphenylcarbamoyl)-phenylselenyl]-L-glutathione] | 49 |

assay: as above; type: biochemical; settings: 1 millimolar concentration of glutathione with tert-butylhydroperoxide

| SMILES | reaction rate |
| --- | --- |
| N[C@@H](CCC(=O)N[C@@H](CS[Se]c1ccccc1C(=O)Nc1ccccc1)C(=O)NCC(=O)O)C(=O)O [S-(2-Phenylcarbamoyl-phenylselenyl)-L-glutathione] | 1,17×10^6 units per mol |
